Test results as given in patent EP0745599A2, “1-(3-Heterocyclylphenyl)-s-triazine-2,4,6-oxo or thiotrione herbicidal agents” (American Cyanamid Company, priority 1995, dated 1996).

Columns and labels:
Assay type in all cases: in vivo
Conditions in all cases: rated four to five weeks after treatment
[1] = tested on: ECHINOCHLOA CRUS-GALLI, (L) BEAU; assay: Preemergence herbicidal evaluation, ECHCG (Barnyardgrass); parameters: key to ECHCG: visual rating scale 0-9 vs control
From the text: (§1) Results of herbicide evaluation are expressed on a rating scale (0-9). The scale is based upon a visual observation of plant stand, vigor, malformation, size, chlorosis and overall plant appearance as compared with a control.
(§2) The preemergence herbicidal activity of the test compounds of the present invention is exemplified by the following tests in which the seeds of a variety of monocotyledonous and dicotyledonous plants are separately mixed with potting soil and planted on top of approximately one inch of soil in separate pint cups. After planting, the cups are sprayed with the selected aqueous acetone solution containing test compound in sufficient quantity to provide the equivalent of about 0.125 to 0.50 kg per hectare of test compound per cup. The treated cups are then placed on greenhouse benches, watered and cared for in accordance with conventional greenhouse procedures. From four to five weeks after treatment, the tests are terminated and each cup is examined and rated according to the rating system provided in Example 42.

[2] = tested on: AMBROSIA ARTEMISIIFOLIA, L.; assay: Preemergence herbicidal evaluation, AMBEL (Ragweed, Common); parameters: key to AMBEL: visual rating scale 0-9 vs control
From the text: as §1, §2

GALIUM APARINE = assay: Preemergence herbicidal evaluation, GALAP (Galium); parameters: key to GALAP: visual rating scale 0-9 vs control
From the text: as §1, §2

[3] = tested on: TRITICUM AESTIVUM, CV. APOLLO; assay: Preemergence herbicidal evaluation, TRZAWO (Wheat, Winter, CV. APOLLO); parameters: key to TRZAWO: visual rating scale 0-9 vs control
From the text: as §1, §2

[4] = tested on: ORYZA SATIVA, L. TEBONNET; assay: Preemergence herbicidal evaluation, ORYSAT (Rice, Tebonnet); parameters: key to ORYSAT: visual rating scale 0-9 vs control
From the text: as §1, §2

CASSIA OBTUSIFOLIA, L. = assay: Preemergence herbicidal evaluation, CASOB (Sicklepod); parameters: key to CASOB: visual rating scale 0-9 vs control
From the text: as §1, §2

CHENOPODIUM ALBUM, L. = assay: Preemergence herbicidal evaluation, CHEAL (Lambsquarters, Common); parameters: key to CHEAL: visual rating scale 0-9 vs control
From the text: as §1, §2

ZEA MAYS L. = assay: Preemergence herbicidal evaluation, ZEAMX (Corn, Field); parameters: key to ZEAMX: visual rating scale 0-9 vs control
From the text: as §1, §2

[5] = tested on: ECHINOCHLOA CRUS-GALLI, (L) BEAU; assay: Postemergence herbicidal evaluation, ECHCG (Barnyardgrass)
Description: (§3) In the tests, seedling plants are grown in jiffy flats for about two weeks. The test compounds are dispersed in 50/50 acetone/water mixtures containing 0.5% TWEEN®20, a polyoxyethylene sorbitan monolaurate surfactant of Atlas Chemical Industries, in sufficient quantities to provide the equivalent of about 0.125 kg to 0.500 kg per hectare of active compound when applied to the plants through a spray nozzle operating at 40 psi for a predetermined time. After spraying, the plants are placed on greenhouse benches and are cared for in the usual manner, commensurate with conventional greenhouse practices. From four to five weeks after treatment, the seedling plants are examined and rated according to the rating system set forth below. Where more than one test is involved for a given compound, the data are averaged.
as §1

[6] = tested on: GLYCINE MAX(L)MERR. CV. WILLIAMS; assay: Preemergence herbicidal evaluation, GLXMAW (Soybean, Williams); parameters: key to GLXMAW: visual rating scale 0-9 vs control
From the text: as §1, §2

[7] = tested on: ABUTILON THEOPHRASTI, MEDIC.; assay: Preemergence herbicidal evaluation, ABUTH (Velvetleaf); parameters: key to ABUTH: visual rating scale 0-9 vs control
From the text: as §1, §2

IPOMOEA SPP. = assay: Preemergence herbicidal evaluation, IPOSS (Morningglory Spp.); parameters: key to IPOSS: visual rating scale 0-9 vs control
From the text: as §1, §2

[8] = tested on: SETARIA VIRIDIS, (L) BEAU; assay: Preemergence herbicidal evaluation, SETVI (Foxtail, Green); parameters: key to SETVI: visual rating scale 0-9 vs control
From the text: as §1, §2

[9] = tested on: SETARIA VIRIDIS, (L) BEAU; assay: Postemergence herbicidal evaluation, SETVI (Foxtail, Green)
Description: as §3, §1

C#CCn1c(=O)n(C)c(=O)n(-c2cc(N3C(=O)C4=C(CCCC4)C3=O)c(F)cc2Cl)c1=O [Compound 16, N-{4-Chloro-2-fluoro-5-[hexahydro-3-methyl-2,4,6-trioxo-5-(2-propynyl)-s-triazin-1-yl]phenyl}-1-cyclohexene-1,2-dicarboximide]
ECHCG ([1]; Rate 0.125 kg/ha): 0.0
ECHCG ([1]; Rate 0.250 kg/ha): 0.0
ECHCG ([1]; Rate 0.500 kg/ha): 0.0
AMBEL ([2]; Rate 0.125 kg/ha): 0.0
AMBEL ([2]; Rate 0.250 kg/ha): 0.0
AMBEL ([2]; Rate 0.500 kg/ha): 2.0
GALAP (GALIUM APARINE; Rate 0.125 kg/ha): 0.0
GALAP (GALIUM APARINE; Rate 0.250 kg/ha): 0.0
GALAP (GALIUM APARINE; Rate 0.500 kg/ha): 4.0
TRZAWO ([3]; Rate 0.125 kg/ha): 0.0
TRZAWO ([3]; Rate 0.250 kg/ha): 0.0
TRZAWO ([3]; Rate 0.500 kg/ha): 0.0
ORYSAT ([4]; Rate 0.125 kg/ha): 0.0
ORYSAT ([4]; Rate 0.250 kg/ha): 0.0
ORYSAT ([4]; Rate 0.500 kg/ha): 0.0
CASOB (CASSIA OBTUSIFOLIA, L.; Rate 0.125 kg/ha): 0.0
CASOB (CASSIA OBTUSIFOLIA, L.; Rate 0.250 kg/ha): 0.0
CASOB (CASSIA OBTUSIFOLIA, L.; Rate 0.500 kg/ha): 0.0
CHEAL (CHENOPODIUM ALBUM, L.; Rate 0.125 kg/ha): 6.0
CHEAL (CHENOPODIUM ALBUM, L.; Rate 0.250 kg/ha): 8.0
CHEAL (CHENOPODIUM ALBUM, L.; Rate 0.500 kg/ha): 9.0
ZEAMX (ZEA MAYS L.; Rate 0.125 kg/ha): 0.0
ZEAMX (ZEA MAYS L.; Rate 0.250 kg/ha): 1.0
ZEAMX (ZEA MAYS L.; Rate 0.500 kg/ha): 2.0
Herbicide rating (0-9) ECHCG ([5]; 0.125 kg/ha): 0.0
Herbicide rating (0-9) ECHCG ([5]; 0.250 kg/ha): 0.0
Herbicide rating (0-9) ECHCG ([5]; 0.500 kg/ha): 0.0
GLXMAW ([6]; Rate 0.125 kg/ha): 0.0
GLXMAW ([6]; Rate 0.250 kg/ha): 0.0
GLXMAW ([6]; Rate 0.500 kg/ha): 0.0
ABUTH ([7]; Rate 0.125 kg/ha): 2.0
ABUTH ([7]; Rate 0.250 kg/ha): 6.0
ABUTH ([7]; Rate 0.500 kg/ha): 9.0
IPOSS (IPOMOEA SPP.; Rate 0.125 kg/ha): 0.0
IPOSS (IPOMOEA SPP.; Rate 0.250 kg/ha): 0.0
IPOSS (IPOMOEA SPP.; Rate 0.500 kg/ha): 0.0
SETVI ([8]; Rate 0.125 kg/ha): 0.0
SETVI ([8]; Rate 0.250 kg/ha): 0.0
SETVI ([8]; Rate 0.500 kg/ha): 3.0
Herbicide rating (0-9) SETVI ([9]; 0.125 kg/ha): 0.0
Herbicide rating (0-9) SETVI ([9]; 0.250 kg/ha): 0.0
Herbicide rating (0-9) SETVI ([9]; 0.500 kg/ha): 0.0

C=CCn1c(=O)n(C)c(=O)n(-c2cc(N3C(=O)C4=C(CCCC4)C3=O)c(F)cc2Cl)c1=O [Compound 17, N-[5-(3-Allylhexahydro-5-methyl-2,4,6-trioxo-s-triazin-1-yl)-4-chloro-2-fluoro-phenyl]-1-cyclohexene-1,2-dicarboximide]
ECHCG ([1]; Rate 0.125 kg/ha): 0.0
ECHCG ([1]; Rate 0.250 kg/ha): 0.0
ECHCG ([1]; Rate 0.500 kg/ha): 0.0
AMBEL ([2]; Rate 0.125 kg/ha): 0.0
AMBEL ([2]; Rate 0.250 kg/ha): 0.0
AMBEL ([2]; Rate 0.500 kg/ha): 2.0
GALAP (GALIUM APARINE; Rate 0.125 kg/ha): 0.0
GALAP (GALIUM APARINE; Rate 0.250 kg/ha): 7.0
GALAP (GALIUM APARINE; Rate 0.500 kg/ha): 4.0
TRZAWO ([3]; Rate 0.125 kg/ha): 0.0
TRZAWO ([3]; Rate 0.250 kg/ha): 0.0
TRZAWO ([3]; Rate 0.500 kg/ha): 0.0
ORYSAT ([4]; Rate 0.125 kg/ha): 0.0
ORYSAT ([4]; Rate 0.250 kg/ha): 0.0
ORYSAT ([4]; Rate 0.500 kg/ha): 2.0
CASOB (CASSIA OBTUSIFOLIA, L.; Rate 0.125 kg/ha): 0.0
CASOB (CASSIA OBTUSIFOLIA, L.; Rate 0.250 kg/ha): 0.0
CASOB (CASSIA OBTUSIFOLIA, L.; Rate 0.500 kg/ha): 0.0
CHEAL (CHENOPODIUM ALBUM, L.; Rate 0.125 kg/ha): 6.0
CHEAL (CHENOPODIUM ALBUM, L.; Rate 0.250 kg/ha): 9.0
CHEAL (CHENOPODIUM ALBUM, L.; Rate 0.500 kg/ha): 9.0
ZEAMX (ZEA MAYS L.; Rate 0.125 kg/ha): 0.0
ZEAMX (ZEA MAYS L.; Rate 0.250 kg/ha): 0.0
ZEAMX (ZEA MAYS L.; Rate 0.500 kg/ha): 3.0
Herbicide rating (0-9) ECHCG ([5]; 0.125 kg/ha): 0.0
Herbicide rating (0-9) ECHCG ([5]; 0.250 kg/ha): 0.0
Herbicide rating (0-9) ECHCG ([5]; 0.500 kg/ha): 0.0
GLXMAW ([6]; Rate 0.125 kg/ha): 0.0
GLXMAW ([6]; Rate 0.250 kg/ha): 0.0
GLXMAW ([6]; Rate 0.500 kg/ha): 0.0
ABUTH ([7]; Rate 0.125 kg/ha): 0.0
ABUTH ([7]; Rate 0.250 kg/ha): 3.0
ABUTH ([7]; Rate 0.500 kg/ha): 9.0
IPOSS (IPOMOEA SPP.; Rate 0.125 kg/ha): 0.0
IPOSS (IPOMOEA SPP.; Rate 0.250 kg/ha): 0.0
IPOSS (IPOMOEA SPP.; Rate 0.500 kg/ha): 0.0
SETVI ([8]; Rate 0.125 kg/ha): 0.0
SETVI ([8]; Rate 0.250 kg/ha): 0.0
SETVI ([8]; Rate 0.500 kg/ha): 3.0

C=CCn1c(=O)[nH]c(=O)n(-c2cc(N3C(=O)C4=C(CCCC4)C3=O)c(F)cc2Cl)c1=O [Compound 18, N-[5-(3-Allylhexahydro-2,4,6-trioxo-s-triazin-1-yl)-4-chloro-2-fluorophenyl]-1-cyclohexene-1,2-dicarboximide]
ECHCG ([1]; Rate 0.125 kg/ha): 0.0
ECHCG ([1]; Rate 0.250 kg/ha): 0.0
ECHCG ([1]; Rate 0.500 kg/ha): 0.0
AMBEL ([2]; Rate 0.125 kg/ha): 0.0
AMBEL ([2]; Rate 0.250 kg/ha): 0.0
AMBEL ([2]; Rate 0.500 kg/ha): 0.0
GALAP (GALIUM APARINE; Rate 0.125 kg/ha): 0.0
GALAP (GALIUM APARINE; Rate 0.250 kg/ha): 0.0
GALAP (GALIUM APARINE; Rate 0.500 kg/ha): 4.0
TRZAWO ([3]; Rate 0.125 kg/ha): 0.0
TRZAWO ([3]; Rate 0.250 kg/ha): 0.0
TRZAWO ([3]; Rate 0.500 kg/ha): 0.0
ORYSAT ([4]; Rate 0.125 kg/ha): 0.0
ORYSAT ([4]; Rate 0.250 kg/ha): 0.0
ORYSAT ([4]; Rate 0.500 kg/ha): 0.0
CASOB (CASSIA OBTUSIFOLIA, L.; Rate 0.125 kg/ha): 0.0
CASOB (CASSIA OBTUSIFOLIA, L.; Rate 0.250 kg/ha): 0.0
CASOB (CASSIA OBTUSIFOLIA, L.; Rate 0.500 kg/ha): 0.0
CHEAL (CHENOPODIUM ALBUM, L.; Rate 0.125 kg/ha): 0.0
CHEAL (CHENOPODIUM ALBUM, L.; Rate 0.250 kg/ha): 5.0
CHEAL (CHENOPODIUM ALBUM, L.; Rate 0.500 kg/ha): 7.0
ZEAMX (ZEA MAYS L.; Rate 0.125 kg/ha): 0.0
ZEAMX (ZEA MAYS L.; Rate 0.250 kg/ha): 0.0
ZEAMX (ZEA MAYS L.; Rate 0.500 kg/ha): 0.0
GLXMAW ([6]; Rate 0.125 kg/ha): 0.0
GLXMAW ([6]; Rate 0.250 kg/ha): 0.0
GLXMAW ([6]; Rate 0.500 kg/ha): 0.0
ABUTH ([7]; Rate 0.125 kg/ha): 0.0
ABUTH ([7]; Rate 0.250 kg/ha): 0.0
ABUTH ([7]; Rate 0.500 kg/ha): 0.0
IPOSS (IPOMOEA SPP.; Rate 0.125 kg/ha): 0.0
IPOSS (IPOMOEA SPP.; Rate 0.250 kg/ha): 0.0
IPOSS (IPOMOEA SPP.; Rate 0.500 kg/ha): 4.0
SETVI ([8]; Rate 0.125 kg/ha): 0.0
SETVI ([8]; Rate 0.250 kg/ha): 0.0
SETVI ([8]; Rate 0.500 kg/ha): 0.0
